Data set [1] is described as follows: Oxidative stability (Oxipress) of avenanthramides in solution. The note with it: for Content after treatment / Degradation in %: 5 bars of oxygen at 70° C. for 24 hours; for Content before treatment: HPLC; for ΔE (colour difference, CIELAB): before vs after 5 bars of oxygen at 70° C. for 24 hours.
Description: Stability under exposure to oxygen and temperature was evaluated for dissolved pure avenanthramides in aqueous ethanolic solution, both alone and as an avenanthramide mixture.
Avenantharmide mixtures used were DragoCalm® (Symrise; INCI Name: Aqua, Glycerin, Avena Sativa Kernel Extract) or DragoCalm® SP (Symrise; INCI Name: Aqua, Glycerin, Pentylene Glycol, Avena Sativa Kernel Extract).
The liquids were either exposed to 5 bars of oxygen at 70° C. for 24 hours using the Oxipress device or stored for 2 and 4 weeks at 40° C. in a heating cabinet.
The content of Avns was determined by HPLC, and the colour was measured by colorimetry (Hach Lange Lico 690 instrument) before and after treatment.
Color can be determined using the CIELAB color model which is based on an opponent color system. CIELAB indicates the color by values on three axes: L*, a*, and b* with dimension L for lightness and a* and b* for the color-opponent dimensions red/green and yellow/blue, based on nonlinearly compressed coordinates. The L* axis extends from black (0) to white (100), the a* axis from green (−a) to red (+a) and the b* axis from blue (−b) to yellow (+b).
The difference of 2 colors ΔE can be calculated using the following equation:
ΔEp,v=√{square root over ((Lp*−Lv*)^2+(ap*−av*)^2+bp*−bv*)^2)}
A difference of ΔE of 0.5-1 can be visually observed by a trained evaluator by naked eye. A difference of 2-4 can be observed visually also by a non-trained evaluator.
A short description of data set [2]: Temperature stability at 40° C. of avenanthramide mixture in solution. The settings on record: for Content after 2 weeks at 40° C. / Content after 4 weeks at 40° C. / Content before treatment: Avn in mixture DragoCalm (glycerin/water); for Content before treatment: HPLC; for Degradation in %: Avn in mixture DragoCalm. The data set is classed as physicochemical. An excerpt:
with p=sample 1 and v=sample 2

In data set [3] the target is T1, tachykinin NK1 receptor (Homo sapiens, UniProt P25103).
T1 construct: expressed in transfected cells; host or cells: CHO cells
As to the kind of experiment: NK1 receptor inhibition study, radioligand binding assay ([3H] Substance P). The method, then:
The inhibition activity of avenanthramide L versus dihydroavenanthramide D and the structurally related avenanthramides A and D was evaluated in a radioligand binding assay.
The method employed in this study was adapted from the scientific literature so as to maximise reliability and reproducibility. Reference compound L-703,606 was run as an integral part of each experiment, to ensure the validity of the results obtained. The assay was performed under the conditions described in the following respective method.
Source: Human recombinant CHO cells
Incubation time/temperature: 90 minutes at 4° C. Incubation buffer: 20 mM HEPES, pH 7.4, • 1 mM MnCl2 • 0.1% BSA
Ligand: 0.80 nM [3H] Substance P
Non-specific ligand: 10.0 μM L-703,606 oxalate salt (CAS 144425-84-3) Specific binding: 90% Significance criteria: ≥50% of max. stimulation or inhibition Bmax: 1.70 pmol/mg protein
In another experiment, the inhibitory activity of a combination of avenanthramide L and another avenanthramide was evaluated in comparison to both substances alone in the radioligand binding assay as described in Example 1 to investigate a potential synergism.

Data set [4] concerns Primary human dermal fibroblasts. The data set can be described thus: Cellular antioxidant activity (DCF-DA assay). In kind it is cell-based. The note with it: Homo sapiens, Fibroblast, 24 h incubation, prooxidant challenge 1 mM 1 h, read-out: Inhibition of oxidation. The method, then:
The DCF-DA assay is a fluorometric microplate assay for the detection of oxidative stress by detecting oxidation of 2′,7′-dichlorofluorescein-diacetate (DCF-DA) into the highly fluorescent compound 2′,7′-dichlorofluorescein (DCF) due to the presence of reactive oxygen species (ROS). The DCF-DA assay allows the cellular antioxidant activity of a substance to be determined.
Primary human dermal fibroblasts were seeded in a 96-well microtiter plate at a concentration of 0.5×10^4 cells/well. Cultivation took place at 37° C. and 5% CO2 in DMEM, enriched with 10% foetal calf serum. Confluence was supposed to be around 70% at the time, the incubation with the test substances began. The test substances were applied to the cells at a concentration of 500 μM. After 24 h of incubation, 100 μL H2DCF-DA-solution (10 μM) incl. DAPI (1:1000) was added to all samples (excluded the background-control) and incubated for one hour to deesterify the H2DCF-DA by cellular esterases. The resulting H2DCF was thereby trapped inside the cell. After the incubation, the cells were washed and the prooxidant challenge was set (1 mM, 1 h). The resulting fluorescence was read at λex 504 nm; λem 524 nm. An increased level of ROS (reactive oxygen species) led to an increased amount of fluorescence.
The inhibition of the oxidation in the presence of test substances was calculated according to the following equation: […]
The abbreviations have the following meanings: • RFU test substance: Relative fluorescence units of the wells with test substance and with cells • RFU control: Relative fluorescence units of the wells without test substance, but with cells • RFU without cells: Relative fluorescence units of the wells without test substance and without cells (blank)

In data set [5] the test system is CD44. As to the kind of experiment: Gene expression in neonatal human epidermal keratinocytes (real-time PCR): CD44. The note with it: 100 μM, 24 hours, nHEK; RQ ≥2.0 relevant. In kind it is cell-based. The procedure:
(§1) Neonatal human epidermal keratinocytes (nHEK) were cultivated in an EpiLife® medium (Gibco) including an HKGS kit (Gibco) with 5% C02 at 37° C. in accordance with the supplier's instructions.
(§2) The cells were treated for 24 hours, with the test compounds dissolved in DMSO and DMSO alone as the vehicle control. Genomic target expression levels in treated cells were measured using a quantitative Real-Time PCR comparison to vehicle control treatment.
(§3) RNA was isolated using Qiagen's RNeasy® Mini Kit. The total RNA concentrations were measured using Eppendorf's pCuvetteG 1.0 and BioPhotometer, by measuring the absorption at 260 nm. Purity control values such as E260/280 and E260/230 were calculated simultaneously. Reverse transcription was performed using the high-capacity RNA-to-cDNA kit of Applied Biosystems, in accordance with the supplier's instructions. Samples were treated in Biometra's PCR Thermocycler.
(§4) For fast real-time PCR, the cDNA was diluted with RNase-free water, and the TaqMan™ Fast Universal PCR Master Mix of Applied Biosystems was used.
(§5) Quantitative real-time PCR was performed using the StepOnePlus fast real-time PCR instrument by Applied Biosystems. Analysis was conducted using the StepOne software and 2^−ΔΔct method (normalised to endogenous control […] expression).
(§6) For upregulations, RQ values ≥2.0 are considered to be relevant. […]
For orientation: Quantitative PCR measures a nucleic acid by following its amplification.

Data set [6] has as its system BLVRB. The data set can be described thus: Gene expression in neonatal human epidermal keratinocytes (real-time PCR): BLVRB. The data set is classed as cell-based. The note with it: 100 μM, 24 hours, nHEK; RQ ≥2.0 relevant. The method, then:
as §1, §2, §3, §4, §5, §6

Data set [7] is described as follows: Radical-scavenging activity (ABTS assay). In kind it is biochemical. The note with it: absorption at 734 nm. An excerpt: The ABTS assay measures the relative ability of antioxidants to scavenge the ABTS radical generated in aqueous phase, as compared with a Trolox (water-soluble vitamin E analogue) standard. The green-blue stable radical cationic chromophore 2,2′-azino-bis(3-ethylbenzothiazoline-6-sulphonate) (ABTS^•+) is generated by reaction with the ABTS salt using a strong oxidising agent (for example potassium permanganate or potassium persulphate) and has absorption maxima at 414, 645, 734 and 815 nm. The reduction of the blue-green ABTS radical by hydrogen-donating antioxidants is measured by the suppression of its characteristic long wave absorption spectrum.
With the aid of the ABTS assay, the antioxidative capacity of Avn L and Avn A were evaluated and compared.
2,2′-azino-bis-(3-ethylbenzothiazoline-6-sulphonic acid) (ABTS) was transformed into the blue-green radical cation ABTS^•+ using potassium persulphate. Through the addition of [6]-paradol and alpha-tocopherol, the radical cations were reduced and discoloration was observed, as determined photometrically by absorption at 734 nm. Inhibition of radical formation in the test substance is calculated by the following formula: […]
where • Atest substance is the absorption in the wells with the test substance including [6]-paradol and alpha-tocopherol • Acontrol is the absorption in the wells with no test substance.
Values for IC50 (the concentration at which radical formation is inhibited by 50%) were calculated from the inhibition of radical formation [%] in a series of dilutions of tested samples.

For data set [8], the system named is HSPB2 (=HSP27). The data set can be described thus: Gene expression in neonatal human epidermal keratinocytes (real-time PCR): HSPB2. In kind it is cell-based. The note with it: 100 μM, 24 hours, nHEK, vs DMSO vehicle; RQ ≥2.0 relevant. The procedure: as §1, §2, §3, §4, §5
For upregulations, RQ values ≥2.0 are considered to be relevant.

Setting [9] is: Avn in mixture DragoCalm SP (glycerin/water).
Setting [10] is: single Avn in aqueous ethanolic solution (0.01 wt %).

Data on three compounds can be found in patent US20230118467A1, “COSMETIC OR PHARMACEUTICAL USE OF AVENANTHRAMIDE L” (priority 2020, published 2023).

Usually inhibition stands for the drop in the measured response relative to a control, in per cent.

T1 sequence (P25103 whole entry): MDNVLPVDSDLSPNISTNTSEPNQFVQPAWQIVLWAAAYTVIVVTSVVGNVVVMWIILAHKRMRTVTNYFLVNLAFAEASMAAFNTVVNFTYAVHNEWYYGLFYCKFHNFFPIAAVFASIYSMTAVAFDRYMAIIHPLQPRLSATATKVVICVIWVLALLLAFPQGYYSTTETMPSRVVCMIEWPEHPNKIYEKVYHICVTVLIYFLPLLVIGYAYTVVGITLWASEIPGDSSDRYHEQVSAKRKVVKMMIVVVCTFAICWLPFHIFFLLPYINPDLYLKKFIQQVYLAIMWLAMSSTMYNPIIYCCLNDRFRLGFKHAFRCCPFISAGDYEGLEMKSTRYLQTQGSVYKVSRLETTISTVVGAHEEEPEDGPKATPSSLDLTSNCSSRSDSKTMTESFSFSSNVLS

On to `O=C(C=Cc1ccc(O)c(O)c1)Nc1ccc(O)cc1C(=O)O` [Avn C, N-(3′-4′-dihydroxycinnamoyl)-5-hydroxyanthranilic acid], for which the Content after treatment in data set [1] (setting [9]) was less than 1 ppm; in data set [1] (setting [10]), 89 ppm. The Degradation in % in data set [1] (setting [9]) is reported as 100%; in data set [1] (Avn in mixture DragoCalm SP (glycerin/water), listed as Avenanthramide C), “completely degraded”; in data set [1] (setting [10]), 15%; in data set [2] (after 2 weeks at 40° C.), 20%; in data set [2] (after 4 weeks at 40° C.), 50%. For the same compound, the Content before treatment in data set [1] (setting [9]) is listed as 10 ppm; in data set [1] (setting [10]), 105 ppm; in data set [2], 20 ppm. In addition, the “ΔE (colour difference, CIELAB)” value in data set [1] (setting [10]) is reported as 2.3. Besides, the “Content after 2 weeks at 40° C.” value in data set [2] is 16 ppm. For the same compound, the “Content after 4 weeks at 40° C.” value in data set [2] amounted to 10 ppm. Moreover, the “Percent inhibition of specific binding to the tachykinin NK1 receptor” value in data set [3] (test concentration 0.1 ppm) is 9%; in data set [3] (test concentration 1 ppm) it was 15%; in data set [3] (test concentration 10 ppm), 27%; in data set [3] (test concentration 100 ppm), 94%.

For `O=C(C=Cc1ccc(O)cc1)Nc1ccc(O)cc1C(=O)O` [Avn A, N-(4′-hydroxycinnamoyl)-5-hydroxyanthranilic acid], the inhibition at 500 µM in data set [4] was found to be 14 ± 6%. In addition, the “RQ value, CD44” value in data set [5] was “no effect”. The “RQ value, BLVRB” value in data set [6] is “no effect”. Besides, in data set [1] (setting [9]), the Content after treatment is on record as 34 ppm, the Degradation in % was 3% and the Content before treatment amounted to 35 ppm. For the same compound, the Degradation in % result in data set [1] (Avn in mixture DragoCalm SP (glycerin/water), listed as Avenanthramide A) was “stable”. Further, in data set [1] (setting [10]), the Content after treatment was 104 ppm; the Degradation in % stood at 0%; the Content before treatment was 104 ppm; the “ΔE (colour difference, CIELAB)” value came out at 0.2. Moreover, in data set [2], the “Content after 2 weeks at 40° C.” value was found to be 50 ppm, the “Content after 4 weeks at 40° C.” value was 50 ppm and the Content before treatment is recorded as 50 ppm. The “Mean antioxidant activity (inhibition of radical formation)” value in data set [7] (5 μM) is given as 40 ± 4%. Moreover, the “Mean antioxidant activity (inhibition of radical formation)” value in data set [7] (10 μM) stood at 76 ± 4%. In addition, in data set [3] (test concentration 0.1 ppm, read-out: Percent inhibition of specific binding to the tachykinin NK1 receptor), the inhibition at 0.1 ppm amounted to 3%. Moreover, in data set [3] (test concentration 1 ppm, read-out: Percent inhibition of specific binding to the tachykinin NK1 receptor), the inhibition at 1 ppm is 8%. The inhibition at 10 ppm in data set [3] (test concentration 10 ppm, read-out: Percent inhibition of specific binding to the tachykinin NK1 receptor) was 14%. Besides, in data set [3] (test concentration 100 ppm, read-out: Percent inhibition of specific binding to the tachykinin NK1 receptor), the inhibition at 100 ppm is 21%. In addition, the inhibition at 125 ppm in data set [3] (test concentration 125 ppm (Example 7), read-out: Percent inhibition of specific binding to the tachykinin NK1 receptor) is 9%. Also, the “RQ value, HSPB2 (=HSP27)” value in data set [8] was determined as 1.9.

For the compound `O=C(CCc1ccc(O)cc1)Nc1ccccc1C(=O)O` [Dihydroavenanthramide D, dihydroavenanthramide D], the “Percent inhibition of specific binding to the tachykinin NK1 receptor” value was 8% in data set [3] (test concentration 0.1 ppm), 6% in data set [3] (test concentration 1 ppm), 8% in data set [3] (test concentration 10 ppm) and 19% in data set [3] (test concentration 100 ppm).
